Results from ChEMBL document CHEMBL5046264, “Cyclotides Chemosensitize Glioblastoma Cells to Temozolomide” (J Nat Prod, 2022).
pIC50: −log10 of the molar value. Converted amounts (≈) assume the structure as drawn. “And” between values parts separate entries of the source, which are not always exact repeats. Equal values may be shown once. The source made the active and inactive calls. The calls are words filed in the database; no cut-off is given here. Positions of bridges follow the written chain, without caps; N, C: chain ends. Residues, ends and D or L forms follow the SMILES beside them.

Assays:
[1] = tested on: SH-SY5Y; assay: Cytotoxicity against human SH-SY5Y cells assessed as cell viability at 5 uM upto 72 hrs by MTT assay; type: functional; conditions: time hrs <=72, read-out: Activity
[2] = tested on: U-87 MG; assay: Cytotoxicity against human U-87 MG cells assessed as cell viability at 5 uM upto 72 hrs by MTT assay; type: functional, U-87MG ATCC; conditions: time hrs <=72, read-out: Activity
[3] = tested on: SH-SY5Y; assay: Cytotoxicity against human SH-SY5Y cells assessed as TMZ-induced cell death at 2.15 uM cotreated with 108.1 uM of TMZ incubated upto 72 hrs by MTT assay; type: functional; conditions: time hrs <=72
[4] = tested on: SH-SY5Y; assay: Cytotoxicity against human SH-SY5Y cells assessed as cell viability using raw interpretation method; type: functional, cell-based
[5] = tested on: SH-SY5Y; assay: Cytotoxicity against human SH-SY5Y cells assessed as TMZ-induced cell death at 2.15 uM cotreated with 54.05 uM of TMZ incubated upto 72 hrs by MTT assay; type: functional; conditions: time hrs <=72
[6] = tested on: U-251; assay: Cytotoxicity against human U-251 cells by sulforhodamine B assay; type: functional, cell-based
[7] = tested on: U-87 MG; assay: Cytotoxicity against human U-87 MG cells by sulforhodamine B assay; type: functional, cell-based, U-87MG ATCC
[8] = tested on: U-87 MG; assay: Cytotoxicity against human U-87 MG cells assessed as TMZ-induced cell death at 4.4 uM cotreated with 352 uM of TMZ measured after 72 hrs by phase contrast microscopy; type: functional, cell-based; conditions: U-87MG ATCC
[9] = tested on: U-87 MG; assay: Induction of morphological changes in human U-87 MG cells assessed as membrane blebbing at 4.4 uM cotreated with 352 uM of TMZ measured after 72 hrs by phase contrast microscopy; type: functional, cell-based; conditions: U-87MG ATCC
[10] = tested on: U-87 MG; assay: Induction of morphological changes in human U-87 MG cells assessed as membrane blebbing at 4.4 uM measured after 72 hrs by phase contrast microscopy; type: functional, cell-based; conditions: U-87MG ATCC
[11] = tested on: U-87 MG; assay: Induction of morphological changes in human U-87 MG cells assessed as swollen nuclei at 4.4 uM cotreated with 352 uM of TMZ measured after 72 hrs by phase contrast microscopy; type: functional, cell-based; conditions: U-87MG ATCC
[12] = tested on: U-87 MG; assay: Effect on cell morphology in human U-87 MG cells at 4.4 uM cotreated with 352 uM of TMZ measured after 72 hrs by phase contrast microscopy; type: functional, cell-based; conditions: U-87MG ATCC
[13] = tested on: U-87 MG; assay: Cytotoxicity against human U-87 MG cells using best fit nonlinear regression analysis; type: functional, cell-based, U-87MG ATCC
[14] = tested on: SH-SY5Y; assay: Cytotoxicity against human SH-SY5Y cells assessed as TMZ-induced cell death at 0.27 to 2.15 uM cotreated with 216.2 uM of TMZ incubated upto 72 hrs by MTT assay; type: functional; conditions: dose 0.27-2.15 µM, time hrs <=72
[15] = tested on: U-87 MG; assay: Induction of morphological changes in human U-87 MG cells assessed as appearance of shrunken cell bodies at 4.4 uM measured after 72 hrs by phase contrast microscopy; type: functional, cell-based; conditions: U-87MG ATCC
[16] = tested on: U-87 MG; assay: Cytotoxicity against human U-87 MG cells assessed as TMZ-induced cell death at 4.5 uM cotreated with 352 to 1408 uM of TMZ incubated upto 72 hrs by MTT assay; type: functional, cell-based; conditions: U-87MG ATCC, time hrs <=72
[17] = tested on: U-87 MG; assay: Induction of morphological changes in human U-87 MG cells assessed as cell death at 4.4 uM cotreated with 352 uM of TMZ measured after 72 hrs by phase contrast microscopy; type: functional, cell-based; conditions: U-87MG ATCC
[18] = tested on: SH-SY5Y; assay: Cytotoxicity against human SH-SY5Y cells using best fit nonlinear regression analysis; type: functional, cell-based
[19] = tested on: U-87 MG; assay: Cytotoxicity against human U-87 MG cells assessed as cell viability using raw interpretation method; type: functional, cell-based, U-87MG ATCC
[20] = tested on: U-87 MG; assay: Cytotoxicity against human U-87 MG cells assessed as TMZ-induced cell death at 4.2 uM cotreated with 1408 uM of TMZ incubated upto 72 hrs by MTT assay; type: functional, cell-based; conditions: U-87MG ATCC, time hrs <=72
[21] = tested on: U-87 MG; assay: Induction of morphological changes in human U-87 MG cells assessed as cell death at 4.2 uM cotreated with 1408 uM of TMZ measured after 72 hrs by phase contrast microscopy; type: functional, U-87MG ATCC
[22] = tested on: SH-SY5Y; assay: Cytotoxicity against human SH-SY5Y cells assessed as TMZ-induced cell death at 1.4 uM cotreated with 176 uM of TMZ incubated upto 72 hrs by MTT assay; type: functional, cell-based; conditions: time hrs <=72
[23] = tested on: U-87 MG; assay: Induction of morphological changes in human U-87 MG cells assessed as appearance of shrunken cell bodies at 1408 uM measured after 72 hrs by phase contrast microscopy; type: functional, U-87MG ATCC
[24] = tested on: U-87 MG; assay: Induction of morphological changes in human U-87 MG cells assessed as appearance of undergoing apoptosis at 1408 uM measured after 72 hrs by phase contrast microscopy; type: functional, U-87MG ATCC
[25] = tested on: U-87 MG; assay: Effect on cell morphology in human U-87 MG cells at 4.2 uM cotreated with 1408 uM of TMZ measured after 72 hrs by phase contrast microscopy; type: functional, cell-based; conditions: U-87MG ATCC
[26] = tested on: U-87 MG; assay: Cytotoxicity against human U-87 MG cells assessed as TMZ-induced cell death at 0.35 to 2.8 uM cotreated with 176 to 704 uM of TMZ incubated upto 72 hrs by MTT assay; type: functional, cell-based; conditions: U-87MG ATCC, dose 0.35-2.8 µM, time hrs <=72
[27] = tested on: U-87 MG; assay: Induction of morphological changes in human U-87 MG cells assessed as membrane blebbing at 1408 uM measured after 72 hrs by phase contrast microscopy; type: functional, U-87MG ATCC

| SMILES | viability at 5 µM [1] | viability at 5 µM [2] | pIC50 [4] | IC50 [6] | pIC50 [13] | pIC50 [18] | pIC50 [19] | also measured |
| --- | --- | --- | --- | --- | --- | --- | --- | --- |
| CC[C@H](C)[C@@H]1NC(=O)[C@H](C)NC(=O)[C@H](CO)NC(=O)[C@H](CO)NC(=O)[C@H]([C@@H](C)CC)NC(=O)[C@@H]2CSSC[C@@H]3NC(=O)[C@H](C(C)C)NC(=O)[C@H](CCCCN)NC(=O)[C@H](CO)NC(=O)[C@H](CCCCN)NC(=O)[C@@H]4CSSC[C@H](NC(=O)[C@H](CO)NC(=O)[C@H](CCC(=O)O)NC(=O)CNC(=O)[C@H](CSSC[C@H](NC(=O)CNC1=O)C(=O)N[C@@H](CO)C(=O)N4)NC(=O)[C@@H]1CCCN1C(=O)[C@H]([C@@H](C)CC)NC(=O)CNC(=O)[C@H](CC(N)=O)NC(=O)[C@H](CCCNC(=N)N)NC(=O)[C@H](Cc1ccc(O)cc1)NC3=O)C(=O)N[C@@H](C(C)C)C(=O)N[C@@H](Cc1c[nH]c3ccccc13)C(=O)N[C@@H]([C@@H](C)CC)C(=O)N1CCC[C@H]1C(=O)N2 (cyclo(AIGCSCKSKVCYRNGIPCGESCVWIPCISS); disulfide 4-18, 6-22, 11-27) | 11.5% | 54.7% | 5.51 | 17.1 µg/mL and 790 nM | 5.35 | 5.67 | 5.25 | Activity [3]: 30%; Activity [5]: <20%; pIC50 [7]: 6.35; Activity [8]: inactive; Activity [9]: Active; Activity [10]: Active; Activity [11]: Active; Activity [12]: Active; Activity [14]: 40%; Activity [15]: Active; Activity [16]: Active; Activity [17]: Active |
| CC(C)C[C@@H]1NC(=O)CNC(=O)[C@H](CC(N)=O)NC(=O)[C@H](CCCNC(=N)N)NC(=O)[C@H](CO)NC(=O)[C@@H]2CSSC[C@@H]3NC(=O)[C@H]([C@@H](C)O)NC(=O)CNC(=O)CNC(=O)[C@H](C(C)C)NC(=O)[C@@H]4CSSC[C@H](NC(=O)[C@H]([C@@H](C)O)NC(=O)[C@H](CSSC[C@H](NC(=O)[C@H](C(C)C)NC(=O)[C@@H]5CCCN5C1=O)C(=O)NCC(=O)N[C@@H](CCC(=O)O)C(=O)N[C@@H]([C@@H](C)O)C(=O)N4)NC(=O)CNC(=O)[C@@H]1CCCN1C(=O)[C@H]([C@@H](C)O)NC(=O)[C@H](CC(N)=O)NC3=O)C(=O)N[C@@H](CO)C(=O)N[C@@H](Cc1c[nH]c3ccccc13)C(=O)N1CCC[C@H]1C(=O)N[C@@H](C(C)C)C(=O)N2 | 13.2% | 29.6% | 5.45 | 37.2 µg/mL (≈ 12.9 µM) | 5.54 | 5.54 | 5.42 | Activity [20]: Active; Activity [21]: 50%; Activity [22]: Active; Activity [23]: 40%; Activity [24]: 40%; Activity [25]: Active; Activity [26]: Active; Activity [27]: 40% |
| CC[C@H](C)[C@@H]1NC(=O)[C@H](C)NC(=O)[C@H](C)NC(=O)[C@H](CO)NC(=O)[C@H]([C@@H](C)CC)NC(=O)[C@@H]2CSSC[C@@H]3NC(=O)[C@H](C(C)C)NC(=O)[C@H](CCCCN)NC(=O)[C@H](CO)NC(=O)[C@H](CCCCN)NC(=O)[C@@H]4CSSC[C@H](NC(=O)[C@H](CO)NC(=O)[C@H](CCC(=O)O)NC(=O)CNC(=O)[C@H](CSSC[C@H](NC(=O)CNC1=O)C(=O)N[C@@H](CO)C(=O)N4)NC(=O)[C@@H]1CCCN1C(=O)[C@H]([C@@H](C)CC)NC(=O)CNC(=O)[C@H](CC(N)=O)NC(=O)[C@H](CCCNC(=N)N)NC(=O)[C@H](Cc1ccc(O)cc1)NC3=O)C(=O)N[C@@H](C(C)C)C(=O)N[C@@H](Cc1c[nH]c3ccccc13)C(=O)N[C@@H]([C@@H](C)CC)C(=O)N1CCC[C@H]1C(=O)N2 [CYCLOVIOLACIN O13] (cyclo(AAIGCSCKSKVCYRNGIPCGESCVWIPCIS); disulfide 5-19, 7-23, 12-28) | 12.5% | 29.7% | 5.51 |  | 5.59 | 5.67 | 5.47 |  |
